Source: ChEMBL document CHEMBL1201862, “PubChem BioAssay data set” (2004)
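Dose response: 5 concentrations. Exposure: 48 h. Format: 96-well plates. Endpoint: linear interpolation; highest concentration if not reached. The concentration for 50% growth inhibition is given as GI50.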 Calls of active or inactive are those of the source. Rule as the data show it: active = GI50 up to about 1.1 µM and inactive = higher.

Key:
Assay in all cases: inhibition of tumour cell growth, NCI panel, 48 h
786-0 = test system: 786-0
A498 = test system: A498
ACHN = test system: ACHN
COLO 205 = test system: COLO 205
DU-145 = test system: DU-145
EKVX = test system: EKVX
HCC 2998 = test system: HCC 2998
HCT-116 = test system: HCT-116
HL-60 = test system: HL-60
HOP-62 = test system: HOP-62
MOLT-4 = test system: MOLT-4
OVCAR-3 = test system: OVCAR-3
OVCAR-5 = test system: OVCAR-5
SF-268 = test system: SF-268
SF-539 = test system: SF-539
SNB-19 = test system: SNB-19
SNB-75 = test system: SNB-75
SW-620 = test system: SW-620
RPMI-8226 = test system: RPMI-8226
MDA-MB-435 = test system: MDA-MB-435

Measured: GI50

CC(C)c1ccc2nc3ccc(C(=O)NCCN(C)C)cn3c(=O)c2c1
inactive: 786-0 14.6 µM | A498 14 µM | ACHN 27.5 µM | COLO 205 16.2 µM | DU-145 34.7 µM | EKVX 16.4 µM | HCC 2998 14.1 µM | HCT-116 13.9 µM | HL-60 16.3 µM | HOP-62 15.3 µM | MOLT-4 15 µM | OVCAR-3 29.2 µM | OVCAR-5 14.7 µM | SF-268 17.5 µM | SF-539 14.9 µM | SNB-19 35 µM | SNB-75 10.4 µM | SW-620 14.7 µM

C#CCOCCCC(=O)O
inactive: 786-0 > 100 µM | A498 > 100 µM | ACHN > 100 µM | COLO 205 > 100 µM | DU-145 > 100 µM | EKVX > 100 µM | HCT-116 > 100 µM | HL-60 > 100 µM | HOP-62 > 100 µM | MOLT-4 > 100 µM | OVCAR-3 > 100 µM | OVCAR-5 > 100 µM | RPMI-8226 > 100 µM | SF-539 > 100 µM | SNB-19 > 100 µM | SNB-75 > 100 µM | SW-620 > 100 µM

COP(=O)(OC)C(=O)N1N(c2ccc([N+](=O)[O-])cc2)C(=O)C(C)NC1(NNc1ccc([N+](=O)[O-])cc1)P(=O)(OC)OC (stereo not drawn)
inactive: 786-0 > 100 µM | A498 > 100 µM | ACHN > 100 µM | COLO 205 > 100 µM | EKVX > 100 µM | HCC 2998 > 100 µM | HCT-116 > 100 µM | HL-60 64.6 µM | HOP-62 > 100 µM | MOLT-4 > 100 µM | OVCAR-3 > 100 µM | OVCAR-5 > 100 µM | RPMI-8226 > 100 µM | SF-268 > 100 µM | SF-539 > 100 µM | SNB-19 > 100 µM | SNB-75 > 100 µM | SW-620 > 100 µM

CC1(C)COC(c2cccc(C(=O)c3ccccc3)c2)=N1
inactive: 786-0 61.1 µM | ACHN 64.4 µM | COLO 205 56.9 µM | DU-145 75.7 µM | EKVX 34.9 µM | HCC 2998 57.9 µM | HCT-116 > 100 µM | HL-60 18.6 µM | HOP-62 > 100 µM | MOLT-4 24.5 µM | OVCAR-3 24.7 µM | OVCAR-5 > 100 µM | RPMI-8226 36.8 µM | SF-268 90.4 µM | SNB-19 51.4 µM | SW-620 > 100 µM

O=c1oc(C(C(F)(F)F)C(F)(F)F)nc2ccccc12
inactive: 786-0 > 100 µM | A498 > 100 µM | ACHN > 100 µM | COLO 205 > 100 µM | EKVX > 100 µM | HCC 2998 > 100 µM | HCT-116 > 100 µM | HL-60 > 100 µM | HOP-62 > 100 µM | MDA-MB-435 > 100 µM | MOLT-4 > 100 µM | OVCAR-3 > 100 µM | OVCAR-5 > 100 µM | RPMI-8226 > 100 µM | SF-539 > 100 µM | SNB-19 > 100 µM | SW-620 > 100 µM

O=C(O)CCCc1nc2c(n1Cc1ccccc1)C(=O)c1ccccc1C2=O
inactive: 786-0 > 100 µM | A498 34.4 µM | ACHN 45.2 µM | COLO 205 34.2 µM | DU-145 29.6 µM | EKVX 31.6 µM | HCC 2998 56.2 µM | HCT-116 28.6 µM | HL-60 29.1 µM | MOLT-4 44.9 µM | OVCAR-3 21.5 µM | OVCAR-5 76.9 µM | RPMI-8226 18.7 µM | SF-268 26.1 µM | SF-539 69.8 µM | SNB-19 > 100 µM | SNB-75 > 10 µM | SW-620 40.6 µM

COC1=CC2(CC(OC)=C1OC)OC21COc2ccccc2C1=O (stereo not drawn)
inactive: 786-0 37.7 µM | A498 > 100 µM | ACHN 45.1 µM | COLO 205 > 100 µM | EKVX 39.4 µM | HCC 2998 > 100 µM | HCT-116 50.5 µM | HL-60 32.4 µM | HOP-62 > 100 µM | MDA-MB-435 > 100 µM | MOLT-4 23 µM | OVCAR-3 > 100 µM | OVCAR-5 > 100 µM | RPMI-8226 51.5 µM | SF-268 > 100 µM | SF-539 > 100 µM | SNB-19 65.2 µM | SNB-75 37.4 µM | SW-620 > 100 µM

CC(=O)c1c(CO[N+](=O)[O-])[n+]([O-])c2ccccc2[n+]1[O-]
inactive: 786-0 > 100 µM | ACHN 61.1 µM | COLO 205 61 µM | DU-145 > 100 µM | EKVX > 100 µM | HCT-116 47.4 µM | HOP-62 98.2 µM | MDA-MB-435 79.6 µM | MOLT-4 78.3 µM | OVCAR-3 52.8 µM | OVCAR-5 > 100 µM | RPMI-8226 56.6 µM | SF-268 > 100 µM | SF-539 > 100 µM | SNB-19 > 100 µM | SNB-75 > 100 µM | SW-620 63.7 µM

C[C@]12CC[C@H]3[C@@H](CCC4=CC(=O)CC[C@@]43C)[C@@H]1CC[C@@H]2OC(=O)c1cccc2c(=O)c3ccccc3[nH]c12
inactive: 786-0 20.3 µM | A498 > 100 µM | ACHN > 100 µM | COLO 205 > 100 µM | EKVX 7.57 µM | HCC 2998 25.2 µM | HOP-62 63.5 µM | MDA-MB-435 43.2 µM | MOLT-4 32.1 µM | OVCAR-3 > 100 µM | OVCAR-5 > 100 µM | RPMI-8226 24.3 µM | SF-268 18.2 µM | SF-539 > 100 µM | SNB-19 > 100 µM | SNB-75 13.9 µM | SW-620 > 100 µM

Cc1ccc(S(=O)(=O)Nn2c(O)c(C#N)c(-c3ccc(Cl)cc3)c(C#N)c2=O)cc1
inactive: 786-0 > 100 µM | A498 > 100 µM | ACHN > 100 µM | COLO 205 > 100 µM | EKVX > 100 µM | HCC 2998 > 100 µM | HCT-116 > 100 µM | HL-60 > 100 µM | HOP-62 > 100 µM | MDA-MB-435 > 100 µM | MOLT-4 > 100 µM | OVCAR-5 > 100 µM | RPMI-8226 > 100 µM | SF-268 > 100 µM | SF-539 > 100 µM | SNB-19 > 100 µM | SNB-75 > 100 µM | SW-620 > 100 µM

O=C1/C(=C/c2cccc(Br)c2)Cc2ccccc21
inactive: 786-0 > 100 µM | ACHN > 100 µM | COLO 205 32.1 µM | DU-145 53.8 µM | EKVX 27.7 µM | HCT-116 27.6 µM | HL-60 68.7 µM | HOP-62 44.6 µM | MDA-MB-435 80 µM | MOLT-4 62.7 µM | OVCAR-3 41.6 µM | OVCAR-5 > 100 µM | RPMI-8226 32.8 µM | SF-268 53.6 µM | SF-539 41.8 µM | SNB-19 50.6 µM | SNB-75 > 100 µM | SW-620 > 100 µM
